Assay results as given in article PMC12198282, “Application of a high-density microelectrode array assay using a 3D human iPSC-derived brain microphysiological system model for in vitro neurotoxicity screening of environmental compounds” (Archives of Toxicology, 2025).
Entries after “also recorded” stand apart in the source; their conditions may differ. Like-named read-outs stand apart in the source and are kept apart here.

Legend:
[1] = tested on: 2D rat cortical cultures; conditions: cited from earlier work; for hitc CCTE_Shafer_MEA_dev_AB: rNFA mc5 hit call; as to hitc CCTE Shafer MEA dev active electrodes number: key: 1 (active); 0 (inactive); as to hitc CCTE Shafer MEA dev burst duration mean: key: 1 (active); 0 (inactive); as to hitc CCTE Shafer MEA dev burst rate: key: 1 (active); 0 (inactive); as to hitc CCTE Shafer MEA dev bursting electrodes number: key: 1 (active); 0 (inactive); as to hitc CCTE Shafer MEA dev correlation coefficient mean: key: 1 (active); 0 (inactive); as to hitc CCTE Shafer MEA dev firing rate mean: key: 1 (active); 0 (inactive); as to hitc CCTE Shafer MEA dev inter network spike interval mean: key: 1 (active); 0 (inactive); as to hitc CCTE Shafer MEA dev interburst interval mean: key: 1 (active); 0 (inactive); as to hitc CCTE Shafer MEA dev mutual information norm: key: 1 (active); 0 (inactive); as to hitc CCTE Shafer MEA dev network spike duration std: key: 1 (active); 0 (inactive); as to hitc CCTE Shafer MEA dev network spike number: key: 1 (active); 0 (inactive); as to hitc CCTE Shafer MEA dev network spike peak: key: 1 (active); 0 (inactive); as to hitc CCTE Shafer MEA dev per burst interspike interval: key: 1 (active); 0 (inactive); as to hitc CCTE Shafer MEA dev per burst spike percent: key: 1 (active); 0 (inactive); as to hitc CCTE Shafer MEA dev per network spike spike number mean: key: 1 (active); 0 (inactive); as to hitc CCTE Shafer MEA dev per network spike spike percent: key: 1 (active); 0 (inactive); as to hitc CCTE Shafer MEA dev spike duration mean: key: 1 (active); 0 (inactive)
[2] = tested on: 2D rat cortical cultures; conditions: cited from earlier work; for AC50: rNFA mc5; for hitc CCTE_Shafer_MEA_dev_active_electrodes_number / hitc CCTE_Shafer_MEA_dev_burst_duration_mean / hitc CCTE_Shafer_MEA_dev_burst_rate / hitc CCTE_Shafer_MEA_dev_bursting_electrodes_number / hitc CCTE_Shafer_MEA_dev_correlation_coefficient_mean / hitc CCTE_Shafer_MEA_dev_firing_rate_mean / hitc CCTE_Shafer_MEA_dev_inter_network_spike_interval_mean / hitc CCTE_Shafer_MEA_dev_interburst_interval_mean / hitc CCTE_Shafer_MEA_dev_mutual_information_norm / hitc CCTE_Shafer_MEA_dev_network_spike_duration_std / hitc CCTE_Shafer_MEA_dev_network_spike_number / hitc CCTE_Shafer_MEA_dev_network_spike_peak / hitc CCTE_Shafer_MEA_dev_per_burst_interspike_interval / hitc CCTE_Shafer_MEA_dev_per_burst_spike_percent / hitc CCTE_Shafer_MEA_dev_per_network_spike_spike_number_mean / hitc CCTE_Shafer_MEA_dev_per_network_spike_spike_percent / hitc CCTE_Shafer_MEA_dev_spike_duration_mean: rNFA mc5 hit call; as to hitc CCTE Shafer MEA dev active electrodes number: key: 1 (active); 0 (inactive); as to hitc CCTE Shafer MEA dev burst duration mean: key: 1 (active); 0 (inactive); as to hitc CCTE Shafer MEA dev burst rate: key: 1 (active); 0 (inactive); as to hitc CCTE Shafer MEA dev bursting electrodes number: key: 1 (active); 0 (inactive); as to hitc CCTE Shafer MEA dev correlation coefficient mean: key: 1 (active); 0 (inactive); as to hitc CCTE Shafer MEA dev firing rate mean: key: 1 (active); 0 (inactive); as to hitc CCTE Shafer MEA dev inter network spike interval mean: key: 1 (active); 0 (inactive); as to hitc CCTE Shafer MEA dev interburst interval mean: key: 1 (active); 0 (inactive); as to hitc CCTE Shafer MEA dev mutual information norm: key: 1 (active); 0 (inactive); as to hitc CCTE Shafer MEA dev network spike duration std: key: 1 (active); 0 (inactive); as to hitc CCTE Shafer MEA dev network spike number: key: 1 (active); 0 (inactive); as to hitc CCTE Shafer MEA dev network spike peak: key: 1 (active); 0 (inactive); as to hitc CCTE Shafer MEA dev per burst interspike interval: key: 1 (active); 0 (inactive); as to hitc CCTE Shafer MEA dev per burst spike percent: key: 1 (active); 0 (inactive); as to hitc CCTE Shafer MEA dev per network spike spike number mean: key: 1 (active); 0 (inactive); as to hitc CCTE Shafer MEA dev per network spike spike percent: key: 1 (active); 0 (inactive); as to hitc CCTE Shafer MEA dev spike duration mean: key: 1 (active); 0 (inactive)
[3] = tested on: BrainSpheres; assay: Cytotoxicity evaluation, resazurin assay (BrainSphere.Cyto); format: cell-based, human; conditions: for hitc BrainSphere.Cyto: day 13, tcplfit2; for AC50: day 13, Supplement 3 prints it also for curves with hit call 0, read-out: ac50 BrainSphere.Cyto; for BMD BrainSphere.Cyto: tcplfit2 BMD at benchmark response (1.349*SD of baseline controls); as to hitc BrainSphere.Cyto: key: 1 (active); 0 (inactive)
Experimental: For the resazurin assay, BrainSpheres were cultured for 7 weeks in non-treated 6-well plates under gyratory shaking. Subsequently, the cells were exposed in the same manner as the HD-MEA plates. This assay was used to determine cell viability after exposure for 13 days to the different compounds. After exposure, resazurin diluted in PBS was added directly to the 6-well plates to a final concentration of 0.1 mg/ml. The plates were then put in an incubator for 3 h at 37 °C, 5% CO2. Then, 100 µl of the media was collected and transferred in a 96-well plate for fluorescence analysis, which was done at ex:530 nm/em:590 nm in a multi-well fluorometric reader CytoFluor series 4000 (PerSeptive Biosystems, Inc).
Ten metrics were measured to evaluate changes in neural activity in the BrainSphere MEA assay (Table 3). Considering the complexity of the data which includes seven recording days for each single ROI in a well, an area under the curve (AUC) metric was used to reduce activity across time as described in previous publications (Brown et al. [2016]; Frank et al. [2017b]; Shafer et al. [2019]). […] For concentration–response modeling, the mean AUC values across all the BrainSpheres per well (technical replicates) was computed for each endpoint, such that each concentration included biological replicates from at least three separate wells on three separate plates, representing each individual experiment. The mean AUC values were used for concentration–response modeling using the R package tcplfit2 (version 0.1.6) (Sheffield et al. [2022]). Data were normalized as a percent of vehicle control wells by plate using the equation: resp.pc=rval-bval/bval×100 where resp.pc is the percent of control value, rval is the response value, and bval is the baseline value (defined as the mean of the vehicle control and the lowest tested concentration). […] The activity cutoff was defined as 3 times the median absolute deviation (bmad) of baseline values. A curve was defined as ‘active’ if the continuous hit call was ≥ 0.9. See Supplemental Table 1 for the bmad, activity cutoff threshold, SD, and benchmark response for each endpoint in the BrainSphere MEA. Potency was defined as the concentration at 50% maximal activity (AC50 log10 µM).

[4] = ref Brown et al. [2016], Carstens et al. [2022], Frank et al. [2017b], Shafer et al. [2019], ToxCast invitrodb (v4.2)
[5] = aenm bursting_electrodes_number
[6] = aenm correlation_coefficient_mean
[7] = aenm inter_network_spike_interval_mean
[8] = aenm network_spike_duration_std
[9] = aenm per_burst_interspike_interval
[10] = aenm per_network_spike_spike_number_mean
[11] = aenm per_network_spike_spike_percent

SMILES: [CH3][Hg][Cl] [Methylmercury]
- hitc CCTE_Shafer_MEA_dev_AB ([1]; cytotoxicity AlamarBlue): 1
- AC50 ([1]; read-out: ac50 CCTE_Shafer_MEA_dev_AB, rNFA mc5, cytotoxicity AlamarBlue): 283 nM
- Cytotoxicity in the resazurin assay of the rNFA (in words) [1, 4]: demonstrating cytotoxicity in the rNFA
- AC50 ([2]; aenm active_electrodes_number, read-out: ac50 CCTE_Shafer_MEA_dev_active_electrodes_number): 360 nM
- AC50 ([2]; aenm burst_duration_mean, read-out: ac50 CCTE_Shafer_MEA_dev_burst_duration_mean): 260 nM
- AC50 ([2]; aenm burst_rate, read-out: ac50 CCTE_Shafer_MEA_dev_burst_rate): 207 nM
- AC50 ([2]; aenm bursting_electrodes_number, read-out: ac50 CCTE_Shafer_MEA_dev_bursting_electrodes_number): 370 nM
- AC50 ([2]; aenm correlation_coefficient_mean, read-out: ac50 CCTE_Shafer_MEA_dev_correlation_coefficient_mean): 306 nM
- AC50 ([2]; aenm firing_rate_mean, read-out: ac50 CCTE_Shafer_MEA_dev_firing_rate_mean): 177 nM
- AC50 ([2]; aenm inter_network_spike_interval_mean, read-out: ac50 CCTE_Shafer_MEA_dev_inter_network_spike_interval_mean): 6 nM
- AC50 ([2]; aenm interburst_interval_mean, read-out: ac50 CCTE_Shafer_MEA_dev_interburst_interval_mean): 340 nM
- AC50 ([2]; aenm mutual_information_norm, read-out: ac50 CCTE_Shafer_MEA_dev_mutual_information_norm): 134 nM
- AC50 ([2]; aenm network_spike_duration_std, read-out: ac50 CCTE_Shafer_MEA_dev_network_spike_duration_std): 164 nM
- AC50 ([2]; aenm network_spike_number, read-out: ac50 CCTE_Shafer_MEA_dev_network_spike_number): 87 nM
- AC50 ([2]; aenm network_spike_peak, read-out: ac50 CCTE_Shafer_MEA_dev_network_spike_peak): 356 nM
- AC50 ([2]; aenm per_burst_interspike_interval, read-out: ac50 CCTE_Shafer_MEA_dev_per_burst_interspike_interval): 322 nM
- AC50 ([2]; aenm per_burst_spike_percent, read-out: ac50 CCTE_Shafer_MEA_dev_per_burst_spike_percent): 306 nM
- AC50 ([2]; aenm per_network_spike_spike_number_mean, read-out: ac50 CCTE_Shafer_MEA_dev_per_network_spike_spike_number_mean): 536 nM
- AC50 ([2]; aenm per_network_spike_spike_percent, read-out: ac50 CCTE_Shafer_MEA_dev_per_network_spike_spike_percent): 309 nM
- AC50 ([2]; aenm spike_duration_mean, read-out: ac50 CCTE_Shafer_MEA_dev_spike_duration_mean): 275 nM
- hitc CCTE_Shafer_MEA_dev_active_electrodes_number ([2]; aenm active_electrodes_number): 1
- hitc CCTE_Shafer_MEA_dev_burst_duration_mean ([2]; aenm burst_duration_mean): 1
- hitc CCTE_Shafer_MEA_dev_burst_rate ([2]; aenm burst_rate): 1
- hitc CCTE_Shafer_MEA_dev_bursting_electrodes_number [2, 5]: 1
- hitc CCTE_Shafer_MEA_dev_correlation_coefficient_mean [2, 6]: 1
- hitc CCTE_Shafer_MEA_dev_firing_rate_mean ([2]; aenm firing_rate_mean): 1
- hitc CCTE_Shafer_MEA_dev_inter_network_spike_interval_mean [2, 7]: 1
- hitc CCTE_Shafer_MEA_dev_interburst_interval_mean ([2]; aenm interburst_interval_mean): 1
- hitc CCTE_Shafer_MEA_dev_mutual_information_norm ([2]; aenm mutual_information_norm): 1
- hitc CCTE_Shafer_MEA_dev_network_spike_duration_std [2, 8]: 1
- hitc CCTE_Shafer_MEA_dev_network_spike_number ([2]; aenm network_spike_number): 1
- hitc CCTE_Shafer_MEA_dev_network_spike_peak ([2]; aenm network_spike_peak): 1
- hitc CCTE_Shafer_MEA_dev_per_burst_interspike_interval [2, 9]: 1
- hitc CCTE_Shafer_MEA_dev_per_burst_spike_percent ([2]; aenm per_burst_spike_percent): 1
- hitc CCTE_Shafer_MEA_dev_per_network_spike_spike_number_mean [2, 10]: 1
- hitc CCTE_Shafer_MEA_dev_per_network_spike_spike_percent [2, 11]: 1
- hitc CCTE_Shafer_MEA_dev_spike_duration_mean ([2]; aenm spike_duration_mean): 1
- Cytotoxicity / cell viability in the BrainSphere resazurin assay (in words) ([3]; day 13 of exposure): magnitude of the response was not sufficient to indicate a positive response
- Cytotoxicity hit ([3]; resazurin, after 13 days of exposure): 0
- hitc BrainSphere.Cyto ([3]; resazurin): 0
- AC50 ([3]; resazurin): 190 nM
- BMD BrainSphere.Cyto [3]: 0.15 µM
- ACC BrainSphere.Cyto ([3]; tcplfit2 output ACC, activity cutoff in Supplemental Table 1): 0.18 µM
- Top BrainSphere.Cyto ([3]; top of winning model, response normalized as percent of vehicle control, negative = decrease): −10

SMILES: CC1(C)S[C@@H]2[C@H](NC(=O)[C@H](N)c3ccc(O)cc3)C(=O)N2[C@H]1C(=O)O [Amoxicillin]
- hitc CCTE_Shafer_MEA_dev_AB ([1]; cytotoxicity AlamarBlue): 0
- hitc CCTE_Shafer_MEA_dev_active_electrodes_number ([2]; aenm active_electrodes_number): 0
- hitc CCTE_Shafer_MEA_dev_burst_duration_mean ([2]; aenm burst_duration_mean): 0
- hitc CCTE_Shafer_MEA_dev_burst_rate ([2]; aenm burst_rate): 0
- hitc CCTE_Shafer_MEA_dev_bursting_electrodes_number [2, 5]: 0
- hitc CCTE_Shafer_MEA_dev_correlation_coefficient_mean [2, 6]: 0
- hitc CCTE_Shafer_MEA_dev_firing_rate_mean ([2]; aenm firing_rate_mean): 0
- hitc CCTE_Shafer_MEA_dev_inter_network_spike_interval_mean [2, 7]: 0
- hitc CCTE_Shafer_MEA_dev_interburst_interval_mean ([2]; aenm interburst_interval_mean): 0
- hitc CCTE_Shafer_MEA_dev_mutual_information_norm ([2]; aenm mutual_information_norm): 0
- hitc CCTE_Shafer_MEA_dev_network_spike_duration_std [2, 8]: 0
- hitc CCTE_Shafer_MEA_dev_network_spike_number ([2]; aenm network_spike_number): 0
- hitc CCTE_Shafer_MEA_dev_network_spike_peak ([2]; aenm network_spike_peak): 0
- hitc CCTE_Shafer_MEA_dev_per_burst_interspike_interval [2, 9]: 0
- hitc CCTE_Shafer_MEA_dev_per_burst_spike_percent ([2]; aenm per_burst_spike_percent): 0
- hitc CCTE_Shafer_MEA_dev_per_network_spike_spike_number_mean [2, 10]: 0
- hitc CCTE_Shafer_MEA_dev_per_network_spike_spike_percent [2, 11]: 0
- hitc CCTE_Shafer_MEA_dev_spike_duration_mean ([2]; aenm spike_duration_mean): 0
- Bioactivity in the rNFA (in words) [2, 4]: negative in the rNFA; also recorded: inactive in the rNFA; also recorded: inactivity across all metrics in both models
- AC50 ([3]; Homo sapiens, 312 h, resazurin): 45000 nM
- Cytotoxicity hit ([3]; human): 0
- hitc BrainSphere.Cyto ([3]; resazurin): 0
- BMD BrainSphere.Cyto [3]: 94 µM
